Test results taken from ChEMBL document CHEMBL5226360, “Pseudoprolines as stereoelectronically tunable proline isosteres” (Bioorg Med Chem Lett, 2022).
pEC50, pIC50, pKi: −log10 of the molar value. Starred links: 1 amine or outer side, 2 acyl side, 3 side chain; linkers in the order of their positions; H or OH if unused. Non-standard residues stand in square brackets, D forms with d. Residues, ends and D or L forms follow the SMILES beside them. X3 = O=C1C[C@](Cc2ccc(O)cc2)(N[*:1])[C@@H]2SC[C@@H](C(=O)[*:2])N12; X4 = O=C1C[C@](Cc2ccc(O)cc2)(N[*:1])[C@H]2SC[C@@H](C(=O)[*:2])N12; X1 = CC1(C)SC[C@@H](C(=O)[*:2])N1[*:1]; X2 = CC1(C)OC[C@@H](C(=O)[*:2])N1[*:1]; Thz = O=C(O)[C@@H]1CSCN1

What was measured:
[1] = target: Dipeptidyl peptidase 4 (Homo sapiens, UniProt P27487); experiment: Inhibition of DPP4 (unknown origin)
Chain of Dipeptidyl peptidase 4 (P27487 whole entry): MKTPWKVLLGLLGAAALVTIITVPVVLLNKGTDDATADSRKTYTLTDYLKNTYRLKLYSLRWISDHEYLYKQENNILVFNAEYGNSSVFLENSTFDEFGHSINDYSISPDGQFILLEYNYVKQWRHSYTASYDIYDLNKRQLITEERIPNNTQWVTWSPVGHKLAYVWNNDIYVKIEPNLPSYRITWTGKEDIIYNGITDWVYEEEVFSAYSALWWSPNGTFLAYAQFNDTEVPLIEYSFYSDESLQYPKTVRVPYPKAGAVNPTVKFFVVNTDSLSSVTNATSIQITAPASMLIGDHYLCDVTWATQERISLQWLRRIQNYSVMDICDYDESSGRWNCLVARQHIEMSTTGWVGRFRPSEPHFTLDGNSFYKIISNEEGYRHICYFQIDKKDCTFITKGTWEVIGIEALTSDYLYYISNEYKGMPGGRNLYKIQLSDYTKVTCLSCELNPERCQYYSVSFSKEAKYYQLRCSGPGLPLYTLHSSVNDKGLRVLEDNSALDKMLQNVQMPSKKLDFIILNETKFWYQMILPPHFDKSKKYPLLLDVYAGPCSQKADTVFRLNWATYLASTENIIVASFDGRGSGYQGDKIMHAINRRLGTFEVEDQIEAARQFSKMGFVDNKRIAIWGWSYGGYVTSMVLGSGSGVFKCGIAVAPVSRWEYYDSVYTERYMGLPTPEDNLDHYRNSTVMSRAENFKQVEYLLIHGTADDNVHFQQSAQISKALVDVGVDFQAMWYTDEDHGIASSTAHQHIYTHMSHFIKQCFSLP

[2] = Oral bioavailability in rat at 2 mg/kg; assay type: ADME, organism-based; settings: in vivo
[3] = Half life in rat at 2 mg/kg, po; assay type: ADME, organism-based; settings: in vivo
[4] = Octanol-water partition coefficient, logP of the compound; assay type: physicochemical
[5] = target: T1, Type-1 angiotensin II receptor A (Rattus norvegicus, UniProt P25095); experiment: Displacement of [I125I]AngII form AT1 receptor in rat liver membrane incubated for 1.5 hrs by gamma counting method; assay type: cell membranes
T1 sequence (P25095 whole entry): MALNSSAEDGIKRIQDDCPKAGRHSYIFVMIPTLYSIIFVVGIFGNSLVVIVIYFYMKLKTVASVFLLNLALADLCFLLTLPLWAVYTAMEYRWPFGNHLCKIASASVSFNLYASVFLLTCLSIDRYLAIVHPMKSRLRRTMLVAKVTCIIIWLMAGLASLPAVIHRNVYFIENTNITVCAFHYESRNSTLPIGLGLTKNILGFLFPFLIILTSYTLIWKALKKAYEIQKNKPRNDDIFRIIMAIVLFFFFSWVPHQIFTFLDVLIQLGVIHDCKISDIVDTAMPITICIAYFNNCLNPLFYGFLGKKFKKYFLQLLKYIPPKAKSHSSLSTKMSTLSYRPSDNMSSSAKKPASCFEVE

[6] = target: T2, Type-2 angiotensin II receptor (Rattus norvegicus, UniProt P35351); experiment: Displacement of [I125I]AngII form AT2 receptor in rat liver membrane incubated for 1.5 hrs by gamma counting method; assay type: cell membranes
T2 sequence (P35351 whole entry): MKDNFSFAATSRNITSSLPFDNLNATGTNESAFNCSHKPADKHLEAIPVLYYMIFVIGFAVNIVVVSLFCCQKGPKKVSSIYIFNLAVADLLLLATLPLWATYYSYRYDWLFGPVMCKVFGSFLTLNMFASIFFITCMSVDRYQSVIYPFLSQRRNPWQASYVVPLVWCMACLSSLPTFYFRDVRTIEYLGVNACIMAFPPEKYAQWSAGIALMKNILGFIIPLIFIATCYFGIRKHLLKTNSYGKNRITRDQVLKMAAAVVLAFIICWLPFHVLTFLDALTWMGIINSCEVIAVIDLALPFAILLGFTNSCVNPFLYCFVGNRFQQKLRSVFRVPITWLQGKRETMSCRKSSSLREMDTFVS

[7] = target: T3, Prolyl endopeptidase (Homo sapiens, UniProt P48147); experiment: Inhibition of POP (unknown origin)
T3 sequence (P48147 whole entry): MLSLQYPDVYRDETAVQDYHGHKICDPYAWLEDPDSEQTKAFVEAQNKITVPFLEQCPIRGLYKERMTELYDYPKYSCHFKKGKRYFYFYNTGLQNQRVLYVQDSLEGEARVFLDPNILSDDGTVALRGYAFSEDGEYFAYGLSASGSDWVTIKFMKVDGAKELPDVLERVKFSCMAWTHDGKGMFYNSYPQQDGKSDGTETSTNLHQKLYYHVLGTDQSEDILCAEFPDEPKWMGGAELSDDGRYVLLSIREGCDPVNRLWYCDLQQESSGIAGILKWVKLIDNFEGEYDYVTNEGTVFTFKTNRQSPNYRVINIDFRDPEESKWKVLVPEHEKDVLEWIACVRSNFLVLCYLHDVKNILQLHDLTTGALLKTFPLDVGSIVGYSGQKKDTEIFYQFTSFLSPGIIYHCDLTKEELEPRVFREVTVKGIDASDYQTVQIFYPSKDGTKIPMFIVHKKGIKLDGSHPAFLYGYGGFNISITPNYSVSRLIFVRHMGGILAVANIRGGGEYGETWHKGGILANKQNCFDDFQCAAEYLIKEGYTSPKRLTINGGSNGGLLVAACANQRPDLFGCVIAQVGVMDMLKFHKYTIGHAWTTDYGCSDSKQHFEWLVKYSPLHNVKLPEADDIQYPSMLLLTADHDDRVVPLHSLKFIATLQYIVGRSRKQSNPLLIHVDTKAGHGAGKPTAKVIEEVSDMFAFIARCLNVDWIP

[8] = target: Neurotensin receptor type 2 (Homo sapiens, UniProt O95665); experiment: Inhibition of human NTR2
Chain of Neurotensin receptor type 2 (O95665 whole entry): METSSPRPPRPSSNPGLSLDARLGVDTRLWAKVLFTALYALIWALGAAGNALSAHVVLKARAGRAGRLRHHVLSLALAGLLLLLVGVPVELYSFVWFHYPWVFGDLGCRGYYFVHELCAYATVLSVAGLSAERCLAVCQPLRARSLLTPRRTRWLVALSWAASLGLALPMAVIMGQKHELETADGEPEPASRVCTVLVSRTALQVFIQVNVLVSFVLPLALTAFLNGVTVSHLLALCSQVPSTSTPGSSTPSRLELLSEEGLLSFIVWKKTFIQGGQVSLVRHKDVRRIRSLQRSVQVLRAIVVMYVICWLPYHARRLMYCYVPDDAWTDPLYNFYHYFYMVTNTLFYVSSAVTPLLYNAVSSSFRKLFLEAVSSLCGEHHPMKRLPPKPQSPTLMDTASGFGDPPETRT

[9] = Oral bioavailability in rat at 10 mg/kg; assay type: ADME, organism-based; settings: in vivo
[10] = Oral bioavailability in dog at 3 mg/kg; assay type: ADME, organism-based, Canis lupus familiaris; settings: in vivo
[11] = Oral bioavailability in monkey at 3 mg/kg; assay type: ADME, organism-based, Macaca mulatta; settings: rhesus monkey, in vivo
[12] = target: D(2) dopamine receptor (Homo sapiens) (UniProt P14416); settings: dose 1.0 10^-8M
Chain of D(2) dopamine receptor (Homo sapiens) (P14416 whole entry): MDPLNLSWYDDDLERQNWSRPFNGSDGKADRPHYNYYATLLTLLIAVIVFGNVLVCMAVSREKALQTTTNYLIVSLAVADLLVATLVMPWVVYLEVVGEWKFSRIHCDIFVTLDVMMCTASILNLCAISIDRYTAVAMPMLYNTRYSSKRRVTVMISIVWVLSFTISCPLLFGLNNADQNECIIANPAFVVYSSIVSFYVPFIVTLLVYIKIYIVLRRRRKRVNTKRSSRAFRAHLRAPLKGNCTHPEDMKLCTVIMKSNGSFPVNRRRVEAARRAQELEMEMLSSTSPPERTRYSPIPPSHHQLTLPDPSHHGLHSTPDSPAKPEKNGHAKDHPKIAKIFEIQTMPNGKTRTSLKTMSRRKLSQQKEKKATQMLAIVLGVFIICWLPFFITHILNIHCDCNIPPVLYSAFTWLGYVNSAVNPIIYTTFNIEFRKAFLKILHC

[13] = target: D(2) dopamine receptor (Homo sapiens) (UniProt P14416); settings: dose 1.0 10^-7M
[14] = tested on: Periplaneta americana; experiment: Diuretic activity in Periplaneta americana assessed as hindgut contraction incubated for 5 mins by myotropic assay; assay type: functional
[15] = tested on: Periplaneta americana; experiment: Diuretic activity in Periplaneta americana assessed as hindgut contraction by measuring maximal response incubated for 5 mins by myotropic assay relative to control; assay type: functional
[16] = tested on: Periplaneta americana; experiment: Diuretic activity in Periplaneta americana assessed as hindgut contraction by measuring lasting time incubated for 5 mins by myotropic assay; assay type: functional
[17] = target: Human immunodeficiency virus type 1 protease (Human immunodeficiency virus 1, UniProt Q72874); experiment: Inhibition of HIV1 protease
[18] = Metabolic stability in pooled human liver microsomes assessed as parent compound remaining measured after 1 hr; assay type: ADME, Microsome; settings: read-out: Stability
[19] = Clearance in rat at 10 mg/kg, iv; assay type: ADME, organism-based; settings: in vivo
[20] = Clearance in dog at 3 mg/kg, iv; assay type: ADME, organism-based, Canis lupus familiaris; settings: in vivo
[21] = Clearance in monkey at 3 mg/kg, iv; assay type: ADME, organism-based, Macaca mulatta; settings: rhesus monkey, in vivo
[22] = Half life in rat at 10 mg/kg, po or iv; assay type: ADME, organism-based; settings: in vivo
[23] = Half life in dog at 3 mg/kg, po or iv; assay type: ADME, organism-based, Canis lupus familiaris; settings: in vivo
[24] = Half life in monkey at 3 mg/kg, po or iv; assay type: ADME, organism-based, Macaca mulatta; settings: rhesus monkey, in vivo
[25] = Volume of distribution at steady state in rat at 10 mg/kg, iv; assay type: ADME, organism-based; settings: in vivo, read-out: Vdss
[26] = Volume of distribution at steady state in dog at 3 mg/kg, iv; assay type: ADME, organism-based, Canis lupus familiaris; settings: in vivo, read-out: Vdss
[27] = Volume of distribution at steady state in monkey at 3 mg/kg, iv; assay type: ADME, organism-based, Macaca mulatta; settings: rhesus monkey, in vivo, read-out: Vdss
[28] = target: Angiotensin-converting enzyme (Homo sapiens, UniProt P12821); experiment: Inhibition of ACE (unknown origin)
Chain of Angiotensin-converting enzyme (P12821 whole entry): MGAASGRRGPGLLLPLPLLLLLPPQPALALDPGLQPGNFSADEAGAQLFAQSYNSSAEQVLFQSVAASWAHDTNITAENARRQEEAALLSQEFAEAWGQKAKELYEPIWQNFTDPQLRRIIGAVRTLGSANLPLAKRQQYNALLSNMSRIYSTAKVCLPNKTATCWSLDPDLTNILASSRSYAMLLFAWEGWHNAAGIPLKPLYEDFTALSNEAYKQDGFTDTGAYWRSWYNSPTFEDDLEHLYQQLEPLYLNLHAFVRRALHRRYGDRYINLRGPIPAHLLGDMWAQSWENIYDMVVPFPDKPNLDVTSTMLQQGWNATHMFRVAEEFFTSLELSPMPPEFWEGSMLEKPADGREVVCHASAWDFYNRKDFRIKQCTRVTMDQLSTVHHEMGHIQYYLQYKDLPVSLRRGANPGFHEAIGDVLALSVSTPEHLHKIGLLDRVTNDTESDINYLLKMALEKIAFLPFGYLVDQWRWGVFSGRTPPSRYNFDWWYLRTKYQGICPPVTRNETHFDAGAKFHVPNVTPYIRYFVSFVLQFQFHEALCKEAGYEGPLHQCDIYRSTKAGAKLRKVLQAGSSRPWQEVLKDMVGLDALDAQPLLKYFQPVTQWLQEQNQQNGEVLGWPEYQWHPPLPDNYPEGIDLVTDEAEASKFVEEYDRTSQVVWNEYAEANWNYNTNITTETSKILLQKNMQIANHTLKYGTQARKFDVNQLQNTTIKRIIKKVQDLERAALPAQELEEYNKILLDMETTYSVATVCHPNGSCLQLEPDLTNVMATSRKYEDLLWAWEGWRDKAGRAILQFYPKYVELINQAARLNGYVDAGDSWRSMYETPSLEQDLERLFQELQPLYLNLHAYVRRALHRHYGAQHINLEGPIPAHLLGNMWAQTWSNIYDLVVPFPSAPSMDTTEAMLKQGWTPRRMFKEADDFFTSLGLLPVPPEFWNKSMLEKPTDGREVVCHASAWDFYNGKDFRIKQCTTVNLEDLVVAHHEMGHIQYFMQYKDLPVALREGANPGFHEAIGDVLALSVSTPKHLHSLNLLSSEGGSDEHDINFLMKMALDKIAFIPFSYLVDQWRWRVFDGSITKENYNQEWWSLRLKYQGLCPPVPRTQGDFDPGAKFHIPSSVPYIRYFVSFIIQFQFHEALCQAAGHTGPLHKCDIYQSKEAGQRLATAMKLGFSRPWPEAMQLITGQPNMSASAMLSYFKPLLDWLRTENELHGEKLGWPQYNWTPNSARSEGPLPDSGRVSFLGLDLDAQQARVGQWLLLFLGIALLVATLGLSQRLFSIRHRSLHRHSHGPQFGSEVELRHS

[29] = Half life in rat at 10 mg/kg, iv; assay type: ADME, organism-based; settings: in vivo
[30] = Tmax in rat at 10 mg/kg, ID; assay type: ADME, organism-based; settings: in vivo
[31] = Bioavailability in rat under fasted condition at 10 mg/kg, ID; assay type: ADME, organism-based; settings: in vivo
[32] = Bioavailability in rat under fed condition at 10 mg/kg, ID; assay type: ADME, organism-based; settings: in vivo

CC(C)[C@H](Nc1ccc(CNC(=O)[C@@H]2CCCN2C(=O)C[C@H](N)Cc2cc(F)ccc2F)cc1)C(=O)O
pIC50 [1]: 9.32
bioavailability [2]: 1.2%
half-life [3]: 0.63 h

O=C(O)[C@@H]1CCCN1C(=O)OCC1c2ccccc2-c2ccccc21
logP [4]: 0.094

CC(C)C[C@H](NC(=O)[C@H](CCCNC(=N)N)NC(=O)[C@@H](N)CC(=O)O)C(=O)N[C@@]1(Cc2ccc(O)cc2)CC(=O)N2[C@H](C(=O)N[C@@H](Cc3c[nH]cn3)C(=O)N3CCC[C@H]3C(=O)N[C@@H](Cc3ccccc3)C(=O)O)CS[C@@H]21 (H-DRL[X4]HPF-OH)
pKi [5]: < 5.00
pKi [6]: 8.43

N#C[C@@H]1CS[C@H]2C[C@H](NC(=O)OCc3ccccc3)C(=O)N12
pIC50 [7]: 4.00

CC[C@H](C)[C@H](NC(=O)[C@H](Cc1ccc(O)cc1)NC(=O)[C@@H]1C[Si](C)(C)CN1C(=O)[C@H](CCCCN)NC(=O)[C@@H](N)CCCCN)C(=O)N[C@@H](CC(C)C)C(=O)O
pIC50 [8]: 8.30

CC(C)[C@H](Nc1ccc(CNC(=O)[C@@H]2CSCN2C(=O)C[C@H](N)Cc2cc(F)ccc2F)cc1)C(=O)O
pIC50 [1]: 9.52
bioavailability [9]: < 2.5%
bioavailability [10]: < 2.5%
bioavailability [11]: < 2.5%

NC(=O)[C@H]1CS[C@@H]2CC[C@]3(CCCN3C(=O)[C@@H]3CCCN3)C(=O)N12
inhibition [12]: 14.6%

NC(=O)[C@@H]1CS[C@@H]2CC[C@]3(CCCN3C(=O)[C@@H]3CCCN3)C(=O)N21
inhibition [13]: 21.4%

NC(=O)CNC(=O)[C@H](Cc1c[nH]c2ccccc12)NC(=O)[C@@H]1CCCN1C(=O)[C@H](Cc1ccccc1)NC(=O)[C@@H](N)Cc1ccccc1 (H-FFPWG-NH2)
pEC50 [14]: 9.10
Activity [15]: 66.8%
Time [16]: 72 s

CC(C)(C)NC(=O)[C@H]1N(C(=O)[C@@H](O)[C@H](Cc2ccccc2)NC(=O)[C@H](CC(N)=O)NC(=O)COc2cccc3ccccc23)CSC1(C)C
pIC50 [17]: 8.55

CC(C)[C@@H](Nc1ccc(CNC(=O)[C@@H]2SCCN2C(=O)C[C@H](N)Cc2cc(F)c(F)cc2F)cc1)C(=O)O
remaining at 1 h [18]: 98.9%
bioavailability [9]: < 2.5%
bioavailability [10]: < 2.5%
bioavailability [11]: < 2.5%
clearance [19]: 16.7 mL/min/kg
clearance [20]: 16.7 mL/min/kg
clearance [21]: 16.7 mL/min/kg
half-life [22]: > 3 h
half-life [23]: > 3 h
half-life [24]: > 3 h
Vd [25]: 0.3 L/kg
Vd [26]: 0.3 L/kg
Vd [27]: 0.3 L/kg

CC1(C)OC[C@@H](C(=O)N[C@@H](Cc2c[nH]c3ccccc23)C(=O)NCC(N)=O)N1C(=O)[C@H](Cc1ccccc1)NC(=O)[C@@H](N)Cc1ccccc1 (H-FF[X2]WG-NH2)
pEC50 [14]: 9.21
Activity [15]: 120.1%
Time [16]: 120 s

C[Si]1(C)C[C@@H](C(=O)O)N(C(=O)OCC2c3ccccc3-c3ccccc32)C1
logP [4]: 1.3

CSC[C@H](NC(=O)COc1cccc2cnccc12)C(=O)N[C@@H](Cc1ccccc1)[C@H](O)C(=O)N1CSC[C@H]1C(=O)NC(C)(C)C
pIC50 [17]: 8.19
pKi [17]: 9.13

CC1(C)SC[C@@H](C(=O)N[C@@H](Cc2c[nH]c3ccccc23)C(=O)NCC(N)=O)N1C(=O)[C@H](Cc1ccccc1)NC(=O)[C@@H](N)Cc1ccccc1 (H-FF[X1]WG-NH2)
pEC50 [14]: 9.15
Activity [15]: 100.6%
Time [16]: 108 s

NC(=O)CNC(=O)[C@H](Cc1c[nH]c2ccccc12)NC(=O)[C@@H]1CSCN1C(=O)[C@H](Cc1ccccc1)NC(=O)[C@@H](N)Cc1ccccc1 (H-FF[Thz]WG-NH2)
pEC50 [14]: 9.13
Activity [15]: 71.5%
Time [16]: 78 s

C[C@H](CS)C(=O)N1CSC[C@H]1C(=O)O
pIC50 [28]: 6.43

CC[C@H](C)[C@H](NC(=O)[C@H](Cc1ccc(O)cc1)NC(=O)[C@@H]1CCCN1C(=O)[C@H](CCCCN)NC(=O)[C@@H](N)CCCCN)C(=O)N[C@@H](CC(C)C)C(=O)O
pIC50 [8]: 9.33

CC(C)(C)NC(=O)[C@@H]1CSCN1C(=O)[C@@H](O)[C@H](Cc1ccccc1)NC(=O)[C@H](CC(N)=O)NC(=O)OCc1ccccc1
pIC50 [17]: 7.51

CC(C)(C)NC(=O)[C@@H]1CCCN1C(=O)[C@@H](O)[C@H](Cc1ccccc1)NC(=O)[C@H](CC(N)=O)NC(=O)OCc1ccccc1
pIC50 [17]: 7.05

Cc1ccccc1CNC(=O)[C@H]1N(C(=O)[C@@H](O)[C@H](Cc2ccccc2)NC(=O)c2cccc(O)c2C)CSC1(C)C
half-life [29]: 1.55 h
Tmax [30]: 1 h
bioavailability [31]: 33%
bioavailability [32]: 33%

CC(C)(C)NC(=O)[C@@H]1CSCN1C(=O)[C@@H](O)[C@H](Cc1ccccc1)NC(=O)[C@H](CC(N)=O)NC(=O)COc1cccc2ccccc12
pIC50 [17]: 8.06

CC(C)C[C@H](NC(=O)[C@H](CCCNC(=N)N)NC(=O)[C@@H](N)CC(=O)O)C(=O)N[C@@]1(Cc2ccc(O)cc2)CC(=O)N2[C@H]1SC[C@H]2C(=O)N[C@@H](Cc1c[nH]cn1)C(=O)N1CCC[C@H]1C(=O)N[C@@H](Cc1ccccc1)C(=O)O (H-DRL[X3]HPF-OH)
pKi [5]: < 5.00
pKi [6]: 9.00

C[C@H](CS)C(=O)N1CCS[C@H]1C(=O)O
pIC50 [28]: 6.08
